Data as given in US20260083851A1 (AVILAR THERAPEUTICS, INC., priority 2022, published 2026).
pKd: −log10 of the molar value.

target: T1, ASGP receptor (biotinylated ASGPR) (Homo sapiens, UniProt P07306); format: binding; conditions: SPR, Biacore 8K, 25° C.; Table 1A, numeric bound; read-out: ASGPR KD
T1 construct: biotin (biotinylated)
T1 sequence (P07306 1-291): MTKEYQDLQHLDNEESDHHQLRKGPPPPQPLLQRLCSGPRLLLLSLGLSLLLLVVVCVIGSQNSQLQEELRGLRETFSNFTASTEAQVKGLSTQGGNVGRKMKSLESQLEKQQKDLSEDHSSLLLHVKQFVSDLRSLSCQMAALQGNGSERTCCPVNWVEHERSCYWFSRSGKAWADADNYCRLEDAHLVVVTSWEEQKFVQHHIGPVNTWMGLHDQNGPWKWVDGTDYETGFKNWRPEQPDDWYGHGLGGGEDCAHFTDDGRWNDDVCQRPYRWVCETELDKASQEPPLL

pKd | SMILES
< 4.70 | O=C(O)CNC(COCCC(=O)NC[C@H]1OC[C@H](Nc2cncc(C(F)(F)F)n2)[C@@H](O)[C@H]1O)COCCC(=O)NC[C@H]1OC[C@H](Nc2cncc(C(F)(F)F)n2)[C@@H](O)[C@H]1O [A23, (1,15-bis((2R,3R,4R,5S)-3,4-dihydroxy-5-((6-(trifluoromethyl)pyrazin-2-yl)amino)tetrahydro-2H-pyran-2-yl)-3,13-dioxo-6,10-dioxa-2,14-diazapentadecan-8-yl)glycine]

same assay, conditions: SPR, Biacore 8K, 25° C.; Table 1A; read-out: ASGPR KD

pKd | SMILES
> 5.00 | O[C@@H]1[C@H](O)[C@@H](Nc2cncc(C(F)(F)F)n2)CO[C@@H]1COc1cnccn1 [A60, (2R,3R,4R,5S)-2-((pyrazin-2-yloxy)methyl)-5-((6-(trifluoromethyl)pyrazin-2-yl)amino)tetrahydro-2H-pyran-3,4-diol]
> 5.00 | O=C(O)c1ccc(N2CCC(CN3CCN(C[C@H]4OC[C@H](Nc5cncc(C(F)(F)F)n5)[C@@H](O)[C@H]4O)CC3)CC2)cc1 [A31, 4-(4-((4-(((2R,3R,4R,5S)-3,4-dihydroxy-5-((6-(trifluoromethyl)pyrazin-2-yl)amino)tetrahydro-2H-pyran-2-yl)methyl)piperazin-1-yl)methyl)piperidin-1-yl)benzoic acid]
> 5.00 | CC(NC[C@H]1OC[C@H](Nc2cncc(C(F)(F)F)n2)[C@@H](O)[C@H]1O)c1ncccn1 (stereo partly drawn) [A55, (2R,3R,4R,5S)-2-(((1-(pyrimidin-2-yl)ethyl)amino)methyl)-5-((6-(trifluoromethyl)pyrazin-2-yl)amino)tetrahydro-2H-pyran-3,4-diol]
> 5.00 | O=C(NC[C@H]1OC[C@H](Nc2cncc(C(F)(F)F)n2)[C@@H](O)[C@H]1O)c1cnccn1 [A20, N-(((2R,3R,4R,5S)-3,4-dihydroxy-5-((6-(trifluoromethyl)pyrazin-2-yl)amino)tetrahydro-2H-pyran-2-yl)methyl)pyrazine-2-carboxamide]
> 5.00 | O=C(O)c1ccc(C(=O)NC[C@H]2OC[C@H](Nc3cncc(C(F)(F)F)n3)[C@@H](O)[C@H]2O)cc1 [A34, 4-((((2R,3R,4R,5S)-3,4-dihydroxy-5-((6-(trifluoromethyl)pyrazin-2-yl)amino)tetrahydro-2H-pyran-2-yl)methyl)carbamoyl)benzoic acid]
> 5.00 | O=C(O)c1ccc(N2CCC(CN3CCN(C[C@H]4OC[C@H](Nc5cccc(C(F)(F)F)n5)[C@@H](O)[C@H]4O)CC3)CC2)cc1 [A100, 4-(4-((4-(((2R,3R,4R,5S)-3,4-dihydroxy-5-((6-(trifluoromethyl)pyridin-2-yl)amino)tetrahydro-2H-pyran-2-yl)methyl)piperazin-1-yl)methyl)piperidin-1-yl)benzoic acid]
> 5.00 | O=C(O)COCCOCC(=O)NC[C@H]1OC[C@H](Nc2cccc(C(F)(F)F)n2)[C@@H](O)[C@H]1O [A103, 2-(2-(2-((((2R,3R,4R,5S)-3,4-dihydroxy-5-((6-(trifluoromethyl)pyridin-2-yl)amino)tetrahydro-2H-pyran-2-yl)methyl)amino)-2-oxoethoxy)ethoxy)acetic acid]
> 5.00 | COCCO[C@H]1O[C@H](CO)[C@H](O)[C@H](O)[C@H]1Nc1cncc(C(F)(F)F)n1 [A5]
> 5.00 | O=C(NC[C@H]1OC[C@H](Nc2cncc(C(F)(F)F)n2)[C@@H](O)[C@H]1O)c1ccn[nH]1 [A49]
> 5.00 | O=C(NC[C@H]1OC[C@H](Nc2cncc(C(F)(F)F)n2)[C@@H](O)[C@H]1O)c1cnc2ccccc2c1 [A8, N-(((2R,3R,4R,5S)-3,4-dihydroxy-5-((6-(trifluoromethyl)pyrazin-2-yl)amino)tetrahydro-2H-pyran-2-yl)methyl)quinoline-3-carboxamide]
> 5.00 | O=C(NC[C@H]1OC[C@H](Nc2cncc(C(F)(F)F)n2)[C@@H](O)[C@H]1O)c1ccccc1 [A36, N-(((2R,3R,4R,5S)-3,4-dihydroxy-5-((6-(trifluoromethyl)pyrazin-2-yl)amino)tetrahydro-2H-pyran-2-yl)methyl)benzamide]
> 5.00 | O[C@@H]1[C@H](O)[C@@H](Nc2cncc(C(F)(F)F)n2)CO[C@@H]1COc1ncccn1 [A61, (2R,3R,4R,5S)-2-((pyrimidin-2-yloxy)methyl)-5-((6-(trifluoromethyl)pyrazin-2-yl)amino)tetrahydro-2H-pyran-3,4-diol]
> 5.00 | OC[C@H]1NC[C@H](Nc2nccc(C(F)(F)F)n2)[C@@H](O)[C@H]1O [A117]

same assay, conditions: SPR, Biacore 8K, 25° C.; Table 1B; read-out: ASGPR Kd

pKd | SMILES
> 5.00 | N#Cc1cc(N[C@H]2CO[C@H](CO)[C@H](O)[C@@H]2O)nc(C(F)(F)F)c1 [A139, 2-(((3S,4R,5R,6R)-4,5-dihydroxy-6-(hydroxymethyl)tetrahydro-2H-pyran-3-yl)amino)-6-(trifluoromethyl)isonicotinonitrile]
> 5.00 | OC[C@H]1OC[C@H](Oc2nccc(C(F)(F)F)n2)[C@@H](O)[C@H]1O [A140, (2R,3R,4S,5S)-2-(hydroxymethyl)-5-((4-(trifluoromethyl)pyrimidin-2-yl)oxy)tetrahydro-2H-pyran-3,4-diol]
> 5.00 | O[C@@H]1[C@@H](Nc2cncc(C(F)(F)F)n2)CNC[C@@H]1O [A150, (3S,4R,5S)-5-((6-(trifluoromethyl)pyrazin-2-yl)amino)piperidine-3,4-diol]

same assay, conditions: SPR, Biacore 8K, 25° C.; Table 1C, numeric bound; read-out: ASGPR KD

pKd | SMILES
< 4.52 | OC[C@H]1OC[C@H](Nc2ncc3nc[nH]c3n2)[C@@H](O)[C@H]1O [A197, (2R,3R,4R,5S)-5-((9H-purin-2-yl)amino)-2-(hydroxymethyl)tetrahydro-2H-pyran-3,4-diol]
< 4.52 | OC[C@H]1OC[C@H](Nc2ncc3cc[nH]c3n2)[C@@H](O)[C@H]1O [A184, (2R,3R,4R,5S)-5-((7H-pyrrolo[2,3-d]pyrimidin-2-yl)amino)-2-(hydroxymethyl)tetrahydro-2H-pyran-3,4-diol]

same assay, conditions: SPR, Biacore 8K, 25° C.; Table 1C; read-out: ASGPR KD

pKd | SMILES
> 5.00 | CC[C@]1(COc2ccc(C(=O)O)nn2)O[C@H](O)[C@H](Nc2cccc(C(F)(F)F)n2)[C@@H](O)[C@H]1O [A314]
> 5.00 | O[C@@H]1[C@@H](Nc2cncc(C(F)(F)F)n2)[C@H]2OC[C@](COc3cnccn3)(O2)[C@@H]1O [A269]
> 5.00 | O[C@@H]1[C@H](O)[C@@H](Oc2cccc(C(F)(F)F)n2)CO[C@@H]1COc1ccccc1 [A234, (2R,3R,4S,5S)-2-(phenoxymethyl)-5-((6-(trifluoromethyl)pyridin-2-yl)oxy)tetrahydro-2H-pyran-3,4-diol]
> 5.00 | O[C@@H]1[C@H](O)[C@@H](Nc2cncc(C(F)(F)F)n2)CO[C@@H]1CN1CCc2ccccc2C1 [A232, (2R,3R,4R,5S)-2-((3,4-dihydroisoquinolin-2(1H)-yl)methyl)-5-((6-(trifluoromethyl)pyrazin-2-yl)amino)tetrahydro-2H-pyran-3,4-diol]
> 5.00 | O[C@@H]1[C@H](O)[C@@H](Nc2cccc(C(F)(F)F)n2)CO[C@@H]1COc1ccc(-c2ccccc2)cc1 [A196, (2R,3R,4R,5S)-2-(([1,1′-biphenyl]-4-yloxy)methyl)-5-((6-(trifluoromethyl)pyridin-2-yl)amino)tetrahydro-2H-pyran-3,4-diol]
> 5.00 | C[C@H]1O[C@H](c2ccc3ccccc3n2)[C@H](Oc2cccc(C(F)(F)F)n2)[C@@H](O)[C@H]1O [A343]
> 5.00 | O[C@@H]1[C@H](O)[C@@H](Nc2cccc(C(F)(F)F)n2)CO[C@@H]1COc1cnccn1 [A239]
> 5.00 | C[C@H]1O[C@H](c2cn(C3CCN(C(=O)OC(C)(C)C)CC3)nn2)[C@H](Oc2cccc(C(F)(F)F)n2)[C@@H](O)[C@H]1O [A217, tert-butyl 4-(4-((2R,3R,4S,5R,6R)-4,5-dihydroxy-6-methyl-3-((6-(trifluoromethyl)pyridin-2-yl)oxy)tetrahydro-2H-pyran-2-yl)-1H-1,2,3-triazol-1-yl)piperidine-1-carboxylate]
> 5.00 | O[C@@H]1[C@H](O)[C@@H](Oc2cccc(C(F)(F)F)n2)CO[C@@H]1CN1Cc2ccccc2C1 [A274]
> 5.00 | O=C(O)c1ccc(-c2ccc(OC[C@H]3OC[C@H](Oc4cccc(C(F)(F)F)n4)[C@@H](O)[C@H]3O)cc2)cc1 [A228, 4′-(((2R,3R,4S,5S)-3,4-dihydroxy-5-((6-(trifluoromethyl)pyridin-2-yl)oxy)tetrahydro-2H-pyran-2-yl)methoxy)-[1,1′-biphenyl]-4-carboxylic acid]
> 5.00 | O[C@@H]1[C@H](O)[C@@H](Oc2cccc(C(F)(F)F)n2)[C@@H](c2ccccc2)O[C@@H]1C(F)F [A330]
> 5.00 | C[C@H]1O[C@@H](c2ccccn2)[C@H](Oc2cccc(C(F)(F)F)n2)[C@@H](O)[C@H]1O [A336]
> 5.00 | CC(C)(C)OC(=O)N1CC=C(c2cccc(N[C@H]3CO[C@H](CO)[C@H](O)[C@@H]3O)n2)CC1 [A195, tert-butyl 6-(((3S,4R,5R,6R)-4,5-dihydroxy-6-(hydroxymethyl)tetrahydro-2H-pyran-3-yl)amino)-3′,6′-dihydro-[2,4′-bipyridine]-1′(2′H)-carboxylate]
> 5.00 | O[C@@H]1[C@H](O)[C@@H](Oc2cccc(C(F)(F)F)n2)CO[C@@H]1CN1CCN(c2cncnc2)CC1 [A293]
> 5.00 | O=C1c2ccccc2CN1C[C@H]1OC[C@H](Oc2cccc(C(F)(F)F)n2)[C@@H](O)[C@H]1O [A265]

same assay, conditions: SPR, Biacore 8K, 25° C.; Table 1D; read-out: ASGPR KD

pKd | SMILES
> 5.00 | CC(C)(C)OC(=O)N1CCC(N2C[C@H](Nc3cccc(C(F)(F)F)n3)[C@@H](O)[C@@H](O)C2)CC1 [A397]
> 5.00 | O[C@@H]1[C@H](O)[C@@H](Nc2cncc(C(F)(F)F)n2)CO[C@@H]1COc1ccc(C2CCNCC2)nn1 [A416]

same assay, conditions: SPR, Biacore 8K, 25° C.; Table 1E; read-out: ASGPR KD

pKd | SMILES
> 5.00 | C[C@H]1O[C@H](CCc2ccncc2)[C@H](Oc2cccc(C(F)(F)F)n2)[C@@H](O)[C@H]1O [A439]
